Peptide text beside a SMILES is read from it. * marks the point of attachment. Cbz = O=C(OCc1ccccc1)*

In test [1] the target is T1, TGFβR1 (Homo sapiens, UniProt P36897).
T1 sequence (P36897 34-503): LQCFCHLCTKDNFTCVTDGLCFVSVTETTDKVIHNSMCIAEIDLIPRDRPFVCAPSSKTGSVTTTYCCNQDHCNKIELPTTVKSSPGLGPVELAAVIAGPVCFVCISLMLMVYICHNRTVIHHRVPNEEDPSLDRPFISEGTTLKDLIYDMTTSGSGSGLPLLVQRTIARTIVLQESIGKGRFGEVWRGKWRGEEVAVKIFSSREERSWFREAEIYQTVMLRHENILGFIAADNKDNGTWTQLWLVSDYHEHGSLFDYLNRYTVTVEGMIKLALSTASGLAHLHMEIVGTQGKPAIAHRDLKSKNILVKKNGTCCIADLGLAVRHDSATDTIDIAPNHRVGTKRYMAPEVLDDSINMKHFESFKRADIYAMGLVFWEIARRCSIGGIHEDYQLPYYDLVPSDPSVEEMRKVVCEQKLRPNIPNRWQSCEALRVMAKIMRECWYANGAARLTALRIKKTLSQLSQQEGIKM
The test is described as follows: Cellular level of TGFβR1 in normal human lung fibroblasts with or without proteasome inhibitor (western blot). The class given is cell-based. Set-up: endogenous in cells; host or cells: normal human lung fibroblasts. Here is the method:
Cells are plated, allowed to adhere, and treated with vehicle, an inhibitor, a PROTAC or a conjugate in the presence or absence of proteasome inhibitor, such as MG-132. After treatment, media is aspirated and cells are rinsed with ice cold PBS. Ice cold lysis buffer (20 mM TrisHCl pH 7.5, 150 mM NaCl, 1% Triton X-100, 2 mM EDTA and 10% glycerol) containing phosphatase and protease inhibitors is added to wells and cells are removed from the plate using a cell scraper. Lysates are transferred to a 1.5 ml tube and rocked for one hour at 4° C. with vortexing every ˜15 minutes. Tubes are spun at 8500×g for 10 minutes and supernatants are drawn into an insulin needle twice. Cell lysates are frozen at […]. Protein concentration is determined using a BCA assay and equal amounts of samples are boiled with reducing loading buffer. The samples are then subjected to electrophoresis on 4-20% polyacrylamide gels which are then transferred to PVDF membranes. […] Loading controls are detected with 1:15000 diluted primary antibody incubation at room temperature for 1 hour with rocking (Tubulin—Abcam, ab7291; Actin—Abcam, ab8224). […]
Normal human lung fibroblasts were treated with or without proteasome inhibitor MG-132 followed by the addition of DMSO or T-20. Whole cell lysates were prepared and then quantitated with a BCA assay. […] TGFβR1, TGFβR2, and actin were detected using commercially available reagents. […]

For test [2], the target named is T1, TGFβR1. The test is described as follows: TGFβR1 level in HER2-transfected HEK293 cells (western blot). Set-up: Plasmid expressing HER2 was transfected into HEK293 cells; endogenous in cells; host or cells: HEK293 cells transiently transfected with a HER2 plasmid. The settings on record: 2, 24 and 48 hours of treatment. The class given is cell-based.
Experimental: After treatment, media is aspirated and cells are rinsed with ice cold PBS. Ice cold lysis buffer (20 mM TrisHCl pH 7.5, 150 mM NaCl, 1% Triton X-100, 2 mM EDTA and 10% glycerol) containing phosphatase and protease inhibitors is added to wells and cells are removed from the plate using a cell scraper. Lysates are transferred to a 1.5 ml tube and rocked for one hour at 4° C. with vortexing every ˜15 minutes. Tubes are spun at 8500×g for 10 minutes and supernatants are drawn into an insulin needle twice. Cell lysates are frozen at ˜80° C. Protein concentration is determined using a BCA assay and equal amounts of samples are boiled with reducing loading buffer. […] Loading controls are detected with 1:15000 diluted primary antibody incubation at room temperature for 1 hour with rocking (Tubulin—Abcam, ab7291; Actin—Abcam, ab8224). […]
Plasmid expressing HER2 was transfected into HEK293 cells using commercially available materials and conditions. […] Whole cell lysates were prepared from cells after 2, 24, or 48 hours incubation and quantitated with a BCA assay. Equal amounts of lysates were run on protein gels, transferred to PVDF, and TGFβR2 was detected using commercially available reagents. To quantitate the amount of protein degradation, the signals on the Western blot were adjusted to actin loading control and data is presented as a percent of matched control.

With `Nc1ncc(-c2ccc(CCNC(=O)[C@@H](N)CCCCNC(=O)COc3cccc4c3C(=O)N(C3CCC(=O)NC3=O)C4=O)cc2)nc1C(=O)Nc1cnccc1N1CCOCC1` (stereo partly drawn) [Compound T-20, 3-amino-6-(4-(2-((2S)-2-amino-6-(2-((2-(2,6-dioxopiperidin-3-yl)-1,3-dioxoisoindolin-4-yl)oxy)acetamido)hexanamido)ethyl)phenyl)-N-(4-morpholinopyridin-3-yl)pyrazine-2-carboxamide], the “degradation of TGFβR1” value on TGFβR1 [1] (5 μM T-20) is on record as “degradation induced by T-20”. For the same compound, at TGFβR1 [2], the “amount of TGFβR1 protein” value is listed as “remained fairly constant”.

In the case of `CC(C)C[C@@H](C=O)NC(=O)[C@H](CC(C)C)NC(=O)[C@H](CC(C)C)NC(=O)OCc1ccccc1` [MG-132, reference compound] (Cbz-Leu-Leu-Leu-aldehyde), the “effect of proteasome inhibitor on T-20 induced degradation of TGFβR1” value at TGFβR1 [1] (MG132 10 and 50 μM followed by 5 μM T-20) is given as “protected”.

Values taken from US20200199247A1, “ANTIBODY CONJUGATES OF IMMUNE-MODULATORY COMPOUNDS AND USES THEREOF” (SILVERBACK THERAPEUTICS, INC., priority 2017, published 2020).
